Data taken from paper PMC3179844 (Chemmedchem, 2011).
Marks after values point to notes of the source that are not given here.

What was measured:
human 11β-HSD1 = human 11β-HSD1 (Homo sapiens, UniProt P28845); assay: Cellular 11β-HSD1 inhibition assay; conditions: for inhibition at 1 µM: HEK293, read-out: Percent inhibition measured at 1 μM
[1] = ratio of IC50 values, human 11β-HSD1

Chain of human 11β-HSD1 (P28845 whole entry): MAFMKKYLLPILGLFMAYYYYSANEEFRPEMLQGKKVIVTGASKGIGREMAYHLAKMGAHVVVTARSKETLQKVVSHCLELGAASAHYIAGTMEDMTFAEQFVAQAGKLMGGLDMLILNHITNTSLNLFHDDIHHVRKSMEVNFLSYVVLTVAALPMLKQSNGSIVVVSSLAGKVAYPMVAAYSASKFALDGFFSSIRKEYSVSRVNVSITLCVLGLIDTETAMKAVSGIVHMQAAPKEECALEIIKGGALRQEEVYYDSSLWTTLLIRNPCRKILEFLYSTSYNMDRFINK

| Compound | melting point [°C] | other results |
| --- | --- | --- |
| 6-{[2-(Adamantan-1-yl)-2-oxoethyl]sulfanyl}-N-methylpyridine-3-carboxamide [Compound 25] |  | Percent inhibition measured at 1 μM (human 11β-HSD1; 1 μM, HEK293/HSD11B1 cells, mean of two measurements): 73 % ^[b] |
| Cc1cccc(OCC(=O)C23CC4CC(CC(C4)C2)C3)n1 [Compound 6, 1-(Adamantan-1-yl)-2-[(6-methylpyridin-2-yl)oxy]ethan-1-one] | 85 to 87 | IC50 (human 11β-HSD1; IC50, human 11β-HSD1, HEK293/HSD11B1 cells): 3.1 µM |
| O=C(COc1cccc(Cl)n1)C12CC3CC(CC(C3)C1)C2 [Compound 7, 1-(Adamantan-1-yl)-2-[(6-chloropyridin-2-yl)oxy]ethan-1-one] | 90 to 93 |  |
| O=C(COc1ccc(C(F)(F)F)cn1)C12CC3CC(CC(C3)C1)C2 [Compound 8, 1-(Adamantan-1-yl)-2-{[5-(trifluoromethyl)pyridin-2-yl]oxy}ethan-1-one] | 102 to 104 |  |
| O=C(COc1cncc(Cl)c1)C12CC3CC(CC(C3)C1)C2 [Compound 9, 1-(Adamantan-1-yl)-2-[(5-chloropyridin-3-yl)oxy]ethan-1-one] | 127 to 128 |  |
| O=C(COc1cccnc1Cl)C12CC3CC(CC(C3)C1)C2 [Compound 10, 1-(Adamantan-1-yl)-2-[(2-chloropyridin-3-yl)oxy]ethan-1-one] | 125 to 128 |  |
| Cc1ccc(OCC(=O)C23CC4CC(CC(C4)C2)C3)cn1 [Compound 11, 1-(Adamantan-1-yl)-2-[(6-methylpyridin-3-yl)oxy]ethan-1-one] | 86 to 87 | fold improvement in activity compared with the 2-pyridyl analogue 6 (human 11β-HSD1; [1]): 38 fold |
| Cc1cccc(SCC(=O)C23CC4CC(CC(C4)C2)C3)n1 [Compound 14, 1-(Adamantan-1-yl)-2-[(6-methylpyridin-2-yl)sulfanyl]ethan-1-one] | 116 to 117 | inhibition at 1 µM (human 11β-HSD1): 70% |
| O=C(CSc1ccncc1)C12CC3CC(CC(C3)C1)C2 [Compound 15, 1-(Adamantan-1-yl)-2-(pyridin-4-ylsulfanyl)ethan-1-one] | 114 to 115 |  |
| O=C(CS(=O)(=O)c1ccccn1)C12CC3CC(CC(C3)C1)C2 [Compound 19, 1-(Adamantan-1-yl)-2-(pyridine-2-sulfonyl)ethan-1-one] | 129 to 131 |  |
| Cc1cccc(S(=O)(=O)CC(=O)C23CC4CC(CC(C4)C2)C3)n1 [Compound 20, 1-(Adamantan-1-yl)-2-(6-methylpyridine-2-sulfonyl)ethan-1-one] | 151 to 152 |  |
| O=C(CS(=O)(=O)c1ccncc1)C12CC3CC(CC(C3)C1)C2 [Compound 21, 1-(Adamantan-1-yl)-2-(pyridine-4-sulfonyl)ethan-1-one] | 143 to 144 |  |
| O=C(CSc1ccc(C(F)(F)F)cn1)C12CC3CC(CC(C3)C1)C2 [Compound 22, 1-(Adamantan-1-yl)-2-{[5-(trifluoromethyl)pyridin-2-yl]sulfanyl}ethan-1-one] | 141 to 142 | fold reduction in activity compared with the unsubstituted derivative 13 (human 11β-HSD1; [1]): 51 fold |
| O=C(O)c1ccc(SCC(=O)C23CC4CC(CC(C4)C2)C3)nc1 [Compound 23, 6-{[2-(Adamantan-1-yl)-2-oxoethyl]sulfanyl}pyridine-3-carboxylic acid] | 174 to 176 |  |
| NC(=O)c1ccc(SCC(=O)C23CC4CC(CC(C4)C2)C3)nc1 [Compound 24, 6-{[2-(Adamantan-1-yl)-2-oxoethyl]sulfanyl}pyridine-3-carboxamide] | 172 to 174 |  |
| CCNC(=O)c1ccc(SCC(=O)C23CC4CC(CC(C4)C2)C3)nc1 [Compound 26, 6-{[2-(Adamantan-1-yl)-2-oxoethyl]sulfanyl}-N-ethylpyridine-3-carboxamide] | 136 to 137 |  |

| Compound | melting point [°C] | other results |
| --- | --- | --- |
| CN(C)C(=O)c1ccc(SCC(=O)C23CC4CC(CC(C4)C2)C3)nc1 [Compound 27, 6-{[2-(Adamantan-1-yl)-2-oxoethyl]sulfanyl}-N,N-dimethylpyridine-3-carboxamide] | 63 to 65 |  |
| O=C(COCc1ccc(C(F)(F)F)nc1)C12CC3CC(CC(C3)C1)C2 [Compound 34, 1-(Adamantan-1-yl)-2-{[6-(trifluoromethyl)pyridin-3-yl]methoxy}ethan-1-one] | 106 to 109 | inhibition at 1 µM (human 11β-HSD1): 33% |
| ON=C(COCc1ccccn1)C12CC3CC(CC(C3)C1)C2 [Compound 35, N-[1-(Adamantan-1-yl)-2-(pyridin-2-ylmethoxy)ethylidene]hydroxylamine] |  | inhibition at 1 μM (in words) (human 11β-HSD1; 1 μM, HEK293/HSD11B1 cells): none of the oxime compound shows any significant inhibition |
| ON=C(COCc1cccnc1)C12CC3CC(CC(C3)C1)C2 [Compound 36, N-[1-(Adamantan-1-yl)-2-(pyridin-3-ylmethoxy)ethylidene]hydroxylamine] | 115 to 117 | inhibition at 1 μM (in words) (human 11β-HSD1; 1 μM, HEK293/HSD11B1 cells): none of the oxime compound shows any significant inhibition |
| O=C(CSCc1ccccn1)C12CC3CC(CC(C3)C1)C2 [Compound 37, 1-(Adamantan-1-yl)-2-[(pyridin-2-ylmethyl)sulfanyl]ethan-1-one] | 38 to 39 |  |
| O=C(CSCc1cccnc1)C12CC3CC(CC(C3)C1)C2 [Compound 38, 1-(Adamantan-1-yl)-2-[(pyridin-3-ylmethyl)sulfanyl]ethan-1-one] | 45 to 47 |  |
| O=C(CSCc1ccc(C(F)(F)F)nc1)C12CC3CC(CC(C3)C1)C2 [Compound 48, 1-(Adamantan-1-yl)-2-({[6-(trifluoromethyl)pyridin-3-yl]methyl}sulfanyl)ethan-1-one] | 80 to 82 | inhibition at 1 µM (human 11β-HSD1): 20% |
| O=C(CSCc1ccc(Cl)nc1)C12CC3CC(CC(C3)C1)C2 [Compound 49, 1-(Adamantan-1-yl)-2-{[(6-chloropyridin-3-yl)methyl]sulfanyl}ethan-1-one] | 88 to 90 | inhibition at 1 µM (human 11β-HSD1): 31% |
| O=C(CS(=O)(=O)Cc1ccc(C(F)(F)F)nc1)C12CC3CC(CC(C3)C1)C2 [Compound 52, 1-(Adamantan-1-yl)-2-({[6-(trifluoromethyl)pyridin-3-yl]methyl}sulfonyl)ethan-1-one] | 87 to 89 | inhibition at 1 µM (human 11β-HSD1): 54% |
| O=C(NCC(=O)C12CC3CC(CC(C3)C1)C2)c1ccccn1 [Compound 56, N-[2-(Adamantan-1-yl)-2-oxoethyl]pyridine-2-carboxamide] | 135 to 136 |  |
| Cc1cccc(C(=O)NCC(=O)C23CC4CC(CC(C4)C2)C3)n1 [Compound 57, N-[2-(Adamantan-1-yl)-2-oxoethyl]-6-methylpyridine-2-carboxamide] | 110 to 111 |  |
| O=C(NCC(=O)C12CC3CC(CC(C3)C1)C2)c1cccnc1 [Compound 58, N-[2-(Adamantan-1-yl)-2-oxoethyl]pyridine-3-carboxamide] | 114 to 115 |  |
| O=C(NCC(=O)C12CC3CC(CC(C3)C1)C2)c1ccncc1 [Compound 59, N-[2-(Adamantan-1-yl)-2-oxoethyl]pyridine-4-carboxamide] | 147 to 149 |  |
| O=C(Cc1ccccn1)NCC(=O)C12CC3CC(CC(C3)C1)C2 [Compound 60, N-[2-(Adamantan-1-yl)-2-oxoethyl]-2-(pyridin-2-yl)acetamide] | 137 to 139 |  |
| O=C(Cc1cccnc1)NCC(=O)C12CC3CC(CC(C3)C1)C2 [Compound 61, N-[2-(Adamantan-1-yl)-2-oxoethyl]-2-(pyridin-3-yl)acetamide] | 115 to 117 |  |
